Data as given in ChEMBL document CHEMBL4257571, “Discovery of 5-(2-chloro-4'-(1H-imidazol-1-yl)-[1,1'-biphenyl]-4-yl)-1H-tetrazole as potent and orally efficacious S-nitrosoglutathione reductase (GSNOR) inhibitors for the potential treatment of COPD” (Bioorg Med Chem Lett, 2018).
Each block holds one compound with its values, some of them ahead of it.

Columns and labels:
CYP2C9 = CYP2C9 (Homo sapiens, UniProt P11712); experiment: Inhibition of CYP2C9 in human liver microsomes at 10 uM after 20 mins in presence of NADPH by LC/MS/MS analysis relative to control; type: ADME
Sequence of CYP2C9 (P11712 whole entry): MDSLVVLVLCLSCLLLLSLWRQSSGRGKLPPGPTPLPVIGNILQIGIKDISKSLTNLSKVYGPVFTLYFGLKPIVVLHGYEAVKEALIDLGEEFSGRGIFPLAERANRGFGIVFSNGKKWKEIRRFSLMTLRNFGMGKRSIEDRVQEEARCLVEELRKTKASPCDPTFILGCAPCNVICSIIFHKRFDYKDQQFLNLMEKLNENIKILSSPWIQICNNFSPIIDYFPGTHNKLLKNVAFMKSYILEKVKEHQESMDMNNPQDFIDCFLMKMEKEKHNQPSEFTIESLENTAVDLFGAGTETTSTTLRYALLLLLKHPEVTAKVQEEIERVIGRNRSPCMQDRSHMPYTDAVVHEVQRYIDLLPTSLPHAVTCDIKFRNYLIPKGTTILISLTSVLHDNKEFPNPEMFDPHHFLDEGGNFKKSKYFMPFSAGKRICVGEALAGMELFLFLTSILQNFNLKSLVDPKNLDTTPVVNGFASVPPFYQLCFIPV

CYP2C19 = CYP2C19 (Homo sapiens, UniProt P33261); experiment: Inhibition of CYP2C19 in human liver microsomes at 10 uM after 40 mins in presence of NADPH by LC/MS/MS analysis relative to control; type: ADME
Sequence of CYP2C19 (P33261 whole entry): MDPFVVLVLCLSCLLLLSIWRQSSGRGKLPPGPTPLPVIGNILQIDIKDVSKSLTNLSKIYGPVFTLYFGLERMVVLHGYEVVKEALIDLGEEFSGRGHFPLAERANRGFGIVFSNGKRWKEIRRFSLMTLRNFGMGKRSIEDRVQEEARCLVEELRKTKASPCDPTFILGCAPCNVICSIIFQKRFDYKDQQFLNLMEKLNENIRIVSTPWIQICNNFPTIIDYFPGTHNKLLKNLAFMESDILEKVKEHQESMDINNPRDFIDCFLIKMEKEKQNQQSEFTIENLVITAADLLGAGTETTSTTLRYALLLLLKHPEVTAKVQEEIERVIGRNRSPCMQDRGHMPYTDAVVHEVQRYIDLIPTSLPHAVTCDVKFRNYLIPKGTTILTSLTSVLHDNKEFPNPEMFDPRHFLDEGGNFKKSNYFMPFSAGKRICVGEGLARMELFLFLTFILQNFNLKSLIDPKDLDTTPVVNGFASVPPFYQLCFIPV

[1] = target: T1, Alcohol dehydrogenase class-3 (Homo sapiens, UniProt P11766); experiment: Inhibition of human GSNOR assessed as reduction in NADH consumption after 3 mins by spectrophotometric analysis
Target sequence in this assay (P11766 whole entry): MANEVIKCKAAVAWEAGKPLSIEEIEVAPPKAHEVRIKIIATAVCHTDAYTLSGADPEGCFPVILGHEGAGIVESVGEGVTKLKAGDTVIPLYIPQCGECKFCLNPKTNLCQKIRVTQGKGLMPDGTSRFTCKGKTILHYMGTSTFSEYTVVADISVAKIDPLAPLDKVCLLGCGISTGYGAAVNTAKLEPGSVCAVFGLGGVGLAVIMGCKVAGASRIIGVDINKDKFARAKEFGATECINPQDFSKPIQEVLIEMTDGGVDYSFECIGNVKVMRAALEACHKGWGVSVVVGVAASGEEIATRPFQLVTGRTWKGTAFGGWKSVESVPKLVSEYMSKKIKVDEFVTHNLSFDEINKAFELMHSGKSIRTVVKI

Cytochrome P450 2D6 = Cytochrome P450 2D6 (Homo sapiens, UniProt P10635); experiment: (§1) Inhibition of CYP2D6 in human liver microsomes at 10 uM after 20 mins in presence of NADPH by LC/MS/MS analysis relative to control; type: ADME; conditions: microsomes, 20 min, 10 µM
Sequence of Cytochrome P450 2D6 (P10635 whole entry): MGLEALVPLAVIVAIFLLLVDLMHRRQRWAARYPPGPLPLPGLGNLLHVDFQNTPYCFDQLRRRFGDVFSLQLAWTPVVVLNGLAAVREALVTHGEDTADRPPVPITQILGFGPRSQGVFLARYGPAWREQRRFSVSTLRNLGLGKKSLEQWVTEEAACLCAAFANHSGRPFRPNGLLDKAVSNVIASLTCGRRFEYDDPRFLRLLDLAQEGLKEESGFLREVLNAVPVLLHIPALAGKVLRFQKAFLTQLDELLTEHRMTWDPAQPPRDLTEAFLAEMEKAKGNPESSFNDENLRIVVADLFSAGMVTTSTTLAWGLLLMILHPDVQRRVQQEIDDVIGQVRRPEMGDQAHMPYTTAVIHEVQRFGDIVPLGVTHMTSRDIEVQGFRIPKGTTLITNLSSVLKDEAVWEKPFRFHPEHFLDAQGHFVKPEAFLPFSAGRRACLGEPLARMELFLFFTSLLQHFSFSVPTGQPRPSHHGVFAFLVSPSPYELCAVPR

Cytochrome P450 1A2 = target: T2, Cytochrome P450 1A2 (Homo sapiens, UniProt P05177); experiment: (§2) Inhibition of CYP1A2 in human liver microsomes at 10 uM after 20 mins in presence of NADPH by LC/MS/MS analysis relative to control; type: ADME; conditions: microsomes, 20 min, 10 µM
T2 sequence (P05177 whole entry): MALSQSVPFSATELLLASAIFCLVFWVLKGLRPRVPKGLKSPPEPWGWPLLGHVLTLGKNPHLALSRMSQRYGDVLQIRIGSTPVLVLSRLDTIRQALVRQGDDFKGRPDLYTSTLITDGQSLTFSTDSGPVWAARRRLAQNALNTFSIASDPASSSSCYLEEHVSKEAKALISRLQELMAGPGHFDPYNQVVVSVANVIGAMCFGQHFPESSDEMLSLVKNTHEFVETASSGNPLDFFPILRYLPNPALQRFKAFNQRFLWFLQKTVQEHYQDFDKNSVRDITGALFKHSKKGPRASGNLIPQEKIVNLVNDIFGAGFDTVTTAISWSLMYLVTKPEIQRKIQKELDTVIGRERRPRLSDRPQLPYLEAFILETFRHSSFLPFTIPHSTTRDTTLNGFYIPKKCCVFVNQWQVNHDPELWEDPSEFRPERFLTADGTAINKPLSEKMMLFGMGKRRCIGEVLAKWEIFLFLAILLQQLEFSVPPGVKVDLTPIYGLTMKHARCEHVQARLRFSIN

Cytochrome P450 3A4 = Cytochrome P450 3A4 (Homo sapiens, UniProt P08684); experiment: (§3) Inhibition of CYP3A4 in human liver microsomes at 10 uM after 20 mins in presence of NADPH by LC/MS/MS analysis relative to control; type: ADME; conditions: microsomes, 20 min, 10 µM
Sequence of Cytochrome P450 3A4 (P08684 whole entry): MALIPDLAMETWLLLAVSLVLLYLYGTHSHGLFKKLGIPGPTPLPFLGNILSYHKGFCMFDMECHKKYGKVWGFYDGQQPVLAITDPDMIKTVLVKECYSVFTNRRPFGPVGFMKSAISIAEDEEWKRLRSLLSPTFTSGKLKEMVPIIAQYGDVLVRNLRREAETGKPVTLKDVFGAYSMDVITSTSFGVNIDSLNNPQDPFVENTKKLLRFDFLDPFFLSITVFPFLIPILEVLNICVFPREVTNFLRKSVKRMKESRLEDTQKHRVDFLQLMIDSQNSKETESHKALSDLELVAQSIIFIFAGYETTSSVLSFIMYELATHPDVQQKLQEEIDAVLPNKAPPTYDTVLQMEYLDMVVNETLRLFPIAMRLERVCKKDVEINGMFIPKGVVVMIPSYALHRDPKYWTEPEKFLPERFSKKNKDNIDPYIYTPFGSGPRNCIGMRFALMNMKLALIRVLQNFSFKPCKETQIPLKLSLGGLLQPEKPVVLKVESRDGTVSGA

CYP2D6 = CYP2D6 (Homo sapiens, UniProt P10635); experiment: as §1; type: ADME; conditions: liver microsomes
Sequence of CYP2D6 (P10635 whole entry): as the sequence (P10635 whole entry) above

CYP1A2 = target: T3, CYP1A2 (Homo sapiens, UniProt P05177); experiment: as §2; type: ADME; conditions: liver microsomes
T3 sequence (P05177 whole entry): T2 sequence (P05177 whole entry)

[2] = Metabolic stability of mouse liver microsomes assessed as parent compound remaining at 0.1 uM after 60 mins in presence of NADPH by LC/MS/MS analysis; type: ADME, microsome; conditions: read-out: Stability
[3] = Metabolic stability of human liver microsomes assessed as parent compound remaining at 0.1 uM after 60 mins in presence of NADPH by LC/MS/MS analysis; type: ADME, microsome; conditions: read-out: Stability
CYP3A4 = CYP3A4 (Homo sapiens, UniProt P08684); experiment: as §3; type: ADME; conditions: liver microsomes
Sequence of CYP3A4 (P08684 whole entry): as the sequence (P08684 whole entry) above

[4] = Metabolic stability of rat liver microsomes assessed as parent compound remaining at 0.1 uM after 60 mins in presence of NADPH by LC/MS/MS analysis; type: ADME, microsome; conditions: read-out: Stability
Mus musculus [5] = experiment: Anti-inflammatory activity in C57BL/6 mouse model of cigarette smoke induced chronic obstructive pulmonary disease assessed as macrophages level in bronchoalveolar lavage at 5 mg/kg, po BID administered 1 hr prior to both smoke exposure for 7 days by Leishman's staining based assay; type: functional
Mus musculus [6] = experiment: Anti-inflammatory activity in C57BL/6 mouse model of cigarette smoke induced chronic obstructive pulmonary disease assessed as neutrophil level in bronchoalveolar lavage at 5 mg/kg, po BID administered 1 hr prior to both smoke exposure for 7 days by Leishman's staining based assay; type: functional
Mus musculus [7] = experiment: Anti-inflammatory activity in C57BL/6 mouse model of cigarette smoke induced chronic obstructive pulmonary disease assessed as total leukocyte count in bronchoalveolar lavage at 5 mg/kg, po BID administered 1 hr prior to both smoke exposure for 7 days by hemocytometry; type: functional
[8] = target: T1, Alcohol dehydrogenase class-3; experiment: Inhibition of human GSNOR assessed as reduction in NADH consumption at 10 uM after 3 mins by spectrophotometric analysis relative to control
Target sequence in this assay (P11766 2-374 limits assumed): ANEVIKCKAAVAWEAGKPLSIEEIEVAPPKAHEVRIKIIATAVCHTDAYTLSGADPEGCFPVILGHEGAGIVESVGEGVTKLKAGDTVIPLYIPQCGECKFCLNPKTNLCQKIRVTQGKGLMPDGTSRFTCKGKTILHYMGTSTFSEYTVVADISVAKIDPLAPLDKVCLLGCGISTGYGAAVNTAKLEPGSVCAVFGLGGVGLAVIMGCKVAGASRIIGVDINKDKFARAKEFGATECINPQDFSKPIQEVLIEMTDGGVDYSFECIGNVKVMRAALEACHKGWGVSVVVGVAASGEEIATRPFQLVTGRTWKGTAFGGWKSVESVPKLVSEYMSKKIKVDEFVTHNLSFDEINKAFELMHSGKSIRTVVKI

inhibition at 20 min, 10 µM (CYP2C9): 50% | inhibition at 40 min, 10 µM (CYP2C19): 42% | IC50 [1]: 27 nM | inhibition (INH) (Cytochrome P450 2D6): Not Active | inhibition (INH) (Cytochrome P450 1A2): Not Active | inhibition (INH) (Cytochrome P450 3A4): Not Active
Compound: Fc1cc(-c2nnn[nH]2)ccc1-c1ncc(-n2ccnc2)cc1Cl

inhibition at 20 min, 10 µM (CYP2C9): 86% | inhibition at 40 min, 10 µM (CYP2C19): 84% | IC50 [1]: 14 nM | inhibition at 20 min, 10 µM (CYP2D6): 44% | inhibition at 20 min, 10 µM (CYP1A2): 39% | remaining at 1 h, 0.1 µM [2]: 44% | remaining at 1 h, 0.1 µM [3]: 99% | inhibition at 20 min, 10 µM (CYP3A4): 26% | remaining at 1 h, 0.1 µM [4]: 68%
Compound: Cc1cc(-n2ccnc2)ccc1-c1ccc(-c2nnn[nH]2)cc1

IC50 [1]: 29 nM
Compound: Cc1cc(C(=O)O)ccc1-c1ccc(-n2ccnc2)cc1

IC50 [1]: 32 nM
Compound: c1cn(-c2ccc(-c3ccc(-c4nnn[nH]4)cc3)nc2)cn1

IC50 [1]: 37 nM
Compound: Cc1nccn1-c1ccc(-c2ccc(-c3nnn[nH]3)cc2Cl)cc1

inhibition at 20 min, 10 µM (CYP2C9): 48% | inhibition at 40 min, 10 µM (CYP2C19): 67% | IC50 [1]: 24 nM | inhibition (INH) (Cytochrome P450 2D6): Not Active | inhibition at 20 min, 10 µM (CYP1A2): 13% | remaining at 1 h, 0.1 µM [2]: 87% | remaining at 1 h, 0.1 µM [3]: 5% | inhibition at 20 min, 10 µM (CYP3A4): 18% | remaining at 1 h, 0.1 µM [4]: 99%
Compound: CCc1cc(-n2ccnc2C)ccc1-c1ccc(-c2nnn[nH]2)cc1

IC50 [1]: 30 nM
Compound: O=C(O)c1ccc(-c2ccc(-n3ccnc3)cc2)c(Cl)c1

IC50 [1]: 22 nM
Compound: Clc1cc(-n2ccnc2)ccc1-c1ccc(-c2nnn[nH]2)cc1

IC50 [1]: 26 nM
Compound: Cc1cc(-c2nnn[nH]2)ccc1-c1ccc(-n2ccnc2)cc1

IC50 [1]: 20 nM
Compound: Fc1cc(-c2nnn[nH]2)ccc1-c1ccc(-n2ccnc2)cc1

IC50 [1]: 935 nM
Compound: Cc1cc(-c2nnn[nH]2)ccc1-c1ncc(-n2ccnc2)cc1Cl

IC50 [1]: 593 nM
Compound: Clc1cc(-c2nn[nH]n2)ccc1-c1ccc(-n2cnnc2)cc1

The remaining lines, values behind:

Compound: CCc1cc(-n2ccnc2)cnc1-c1ccc(-c2nnn[nH]2)cc1F
IC50 [1]: 62 nM

Compound: O=C(Nc1c(Cl)cncc1Cl)c1ccc(OC(F)F)c(OCC2CC2)c1 [ROFLUMILAST]
Activity (Mus musculus [5]): 75% | Activity (Mus musculus [6]): 40% | Activity (Mus musculus [7]): 58%

Compound: O=C(O)c1ccc(-c2ccc(O)cc2)cc1
inhibition [8]: 25%

Compound: O=C(O)c1ccc(-c2ccc(-n3ccnc3)cc2)cc1
IC50 [1]: 62 nM

Compound: O=c1nc(-c2ccc(-c3ccc(-n4ccnc4)cc3)cc2)[nH]o1
IC50 [1]: 152 nM

Compound: Cc1cc(-n2ccnc2)cnc1-c1ccc(C(=O)O)cc1F
IC50 [1]: 36 nM

Compound: O=C(O)c1ccc(-c2ncc(-n3ccnc3)cc2Cl)cc1
IC50 [1]: 89 nM

Compound: c1cn(-c2cnc(-c3ccc(-c4nnn[nH]4)cc3)c(C3CCCCC3)c2)cn1
IC50 [1]: 74 nM

Compound: Cc1cc(-n2ccnc2)cnc1-c1ccc(C(=O)O)cc1
IC50 [1]: 41 nM
